Assay results: ChEMBL document CHEMBL1156829 (Proc Natl Acad Sci U S A, 2008)

Legend:
Plasmodium falciparum [1] = test: NOVARTIS: Inhibition of Plasmodium falciparum 3D7 (drug-susceptible) proliferation in erythrocyte-based infection assay; type: functional, organism-based; conditions: Plasmodium falciparum, 3D7
Plasmodium falciparum [2] = test: NOVARTIS: Inhibition of Plasmodium falciparum W2 (drug-resistant) proliferation in erythrocyte-based infection assay; type: functional, organism-based; conditions: Plasmodium falciparum, W2; read-out: EC50
[3] = NOVARTIS: Cytotoxicity against human hepatocellular carcinoma cell line (Huh7); type: toxicity, cell-based, Huh-7; conditions: Huh7 cells (hepatocellular carcinoma cell line)

SMILES | EC50 (Plasmodium falciparum [1]) | EC50 (Plasmodium falciparum [2]) | CC50 [3]
Cc1ccc(N=C2NC(=O)/C(=C/c3cc(C)n(-c4cccc([N+](=O)[O-])c4)c3C)S2)cc1 | 353 nM | 985 nM | > 100000 nM
CS/C(Cl)=C(/NC(C)=O)[P+](c1ccccc1)(c1ccccc1)c1ccccc1.[O-][Cl+3]([O-])([O-])[O-] | 115 nM | 100 nM | > 10000 nM
CCCC[C@@H](C)[C@@H](O)[C@H]1C(=O)N[C@@H](C(C)C)C(=O)N(C)[C@H](SC)C(=O)N(C)[C@@H](CC(C)C)C(=O)N[C@@H](C(C)C)C(=O)N(C)[C@@H](CC(C)C)C(=O)N[C@@H](C)C(=O)N[C@H](C)C(=O)N(C)[C@@H](CC(C)C)C(=O)N(C)[C@@H](CC(C)C)C(=O)N(C)[C@@H](C(C)C)C(=O)N1C | 32.5 nM | 51.7 nM | 5180 nM
O=C1c2cc([N+](=O)[O-])ccc2-n2c1nc1ccccc1c2=O | 148 nM | 100 nM | > 10000 nM
COc1ccc(C=Cc2cc[n+](C)cc2)cc1OC | 1820 nM | 1010 nM | > 100000 nM
CC(C)(C)C1CCc2[nH]c3ccccc3c(=O)c2C1 (centres undefined) | 852 nM | 976 nM | > 100000 nM
NCCCNC(=O)COC(c1ccccc1)c1cccnc1Cl (centres undefined) | 81.7 nM | 100 nM | > 10000 nM
O=C(Cc1ccccc1)NCc1nnc(SCC(=O)N2N=C(c3cccs3)CC2c2ccc(F)cc2)n1Cc1ccccc1 (centres undefined) | 8850 nM | 984 nM | > 100000 nM
CCC(C)NC(=O)c1cc(NC(=O)/C=C/c2ccc([N+](=O)[O-])cc2)ccc1N1CCN(c2ccccc2OC)CC1 (centres undefined) | > 1250 nM | 54.3 nM | 5550 nM
CC(=O)OC1(C)CC(C)C(=O)C(C(O)CC2CC(=O)NC(=O)C2)C1 (centres undefined) | 74.7 nM | 58.7 nM | > 5890 nM
CC(Cl)=CC[N+]1(CC#Cc2cccc3ccccc23)CCOCC1 | 1160 nM | 1000 nM | > 100000 nM
CCCN1CCc2c(sc3nc(SCC(=O)c4ccccc4)nc(N)c23)C1 | 1420 nM | 1010 nM | > 100000 nM
CCOC(=O)C1=C(C)NC2=C(C(=O)C(C(=O)OCC)C(c3ccccc3OC)C2)C1c1ccc(Cl)cc1 (centres undefined) | 5420 nM | 1000 nM | > 100000 nM
Cc1cc(Nc2ccc(Cl)c(C)c2)n2nc(C)nc2n1 | 983 nM | 1000 nM | > 100000 nM
CN1CC=C(/C=C/c2c[nH]c3ccccc23)CC1 | 483 nM | 100 nM | > 10000 nM
O=C(COc1cccc2ccccc12)NC1CCS(=O)(=O)C1 (centres undefined) | > 12500 nM | 1000 nM | > 100000 nM
COc1cc(NCc2cnc(N)nc2N)cc(OC)c1 | 330 nM | 99.2 nM | > 10000 nM
CNCC(O)c1ccc(Cl)c(Cl)c1 (centres undefined) | 837 nM | 99.1 nM | > 10000 nM
COc1ccc(S(=O)(=O)N2CCN(C(=S)NC3CCCCC3)CC2)cc1 | 8540 nM | 1000 nM | > 100000 nM
CNC1=C(N(Cc2ccc(Cl)c(Cl)c2)C(C)=O)C(=O)c2ccccc2C1=O | 1.23 nM | 1.26 nM | 126 nM
Cc1noc(C)c1S(=O)(=O)N(Cc1ccccc1)CC(O)CN1CCC(NC(=O)c2ccccc2Cl)C1 (centres undefined) | 256 nM | 99.7 nM | > 10000 nM
COc1ccc(NC(=O)Cn2ncc3ccccc32)cc1OC | > 1250 nM | 984 nM | > 100000 nM
C=CCNC(=O)c1cc2c(=O)n3cccc(C)c3nc2n(CCc2ccccc2)c1=N | 702 nM | 982 nM | > 100000 nM
C=C[C@H]1CN2CC[C@H]1C[C@@H]2[C@@H](OC(=O)CCCCl)c1ccnc2ccccc12 | 49 nM | 96.8 nM | > 10000 nM
COc1cccc(C2C(C(=O)Nc3ccccc3)=C(C)N=c3sc(=Cc4c[nH]c5ccccc45)c(=O)n32)c1 (centres undefined) | 2470 nM | 964 nM | > 100000 nM
CC(C)(C)OC(=O)N1CCC(c2c(C(=O)Nc3cccc(C(F)(F)F)c3)cnn2-c2ccc(F)cc2F)CC1 | 1270 nM | 990 nM | > 100000 nM
CCOc1ccc(Nc2ccnc3cc(Cl)ccc23)cc1 | 956 nM | 986 nM | > 100000 nM

SMILES | EC50 (Plasmodium falciparum [1]) | EC50 (Plasmodium falciparum [2]) | CC50 [3]
C=CC1CN2CCC1CC2[C@H](c1ccnc2ccccc12)S(=O)(=O)O (some centres undefined) | 152 nM | 97.1 nM | > 10000 nM
COc1ccccc1C(c1nnnn1Cc1ccc(F)cc1)N1CCN(C)CC1 (centres undefined) | 11900 nM | 970 nM | > 100000 nM
Brc1ccc2[nH]c3c(NCCCN4CCOCC4)ncnc3c2c1 | 359 nM | 957 nM | > 98700 nM
COc1cccc(C(=O)C[n+]2cc(-c3ccc(Cl)cc3)n3c2CCC3)c1 | 1740 nM | 975 nM | > 100000 nM
CCCCCCOc1ccc(NC(=O)c2cccs2)cc1 | 396 nM | 972 nM | > 100000 nM
CCOC(=O)c1cc(-c2ccc(C)cc2)n(CCC(=O)Nc2cccc(C(F)(F)F)c2)c1C | 823 nM | 327 nM | 33700 nM
CCC(Sc1nnc(-c2ccc(C)cc2)c(-c2ccc(C)cc2)n1)C(=O)NCCOC (centres undefined) | 477 nM | 753 nM | 77000 nM
CCCCCCN(C(=O)COCc1ccccc1)C(CC)c1nc2ccccc2c(=O)n1-c1cccc(Cl)c1 (centres undefined) | 42.2 nM | 75.8 nM | > 7770 nM
O=C(Nc1ccccc1)NC1CC2CCCC(C1)N2CCc1ccccc1 (centres undefined) | 156 nM | 98.2 nM | > 10000 nM
C(#Cc1ccccc1)C[N+]1(CCOc2ccccc2)CCCCC1 | 1440 nM | 981 nM | > 100000 nM
CC(C)(C)CC(C)(C)Nc1c(-c2ccccc2OC(=O)c2ccccc2F)nc2ccccn12 | 1300 nM | 97.9 nM | > 10000 nM
O=C1c2ccccc2-c2nc3nnnn3nc21 | 239 nM | 98.7 nM | > 10000 nM
CCN(CC)CCCN(Cc1cc2c(C)cc(C)cc2[nH]c1=O)C(=S)NCCCN(C)C | 2090 nM | 1000 nM | > 100000 nM
CN1CCCC1CCNc1ncc(C(=O)NCc2ccccc2)c(NCC2CCCCC2)n1 (centres undefined) | 54.4 nM | 100 nM | > 10000 nM
Nc1ccc2nc(-c3cccc(-c4nc5ccc(N)cc5s4)c3)sc2c1 | 283 nM | 995 nM | > 100000 nM
Cc1cccc(NC(=O)c2sc3nc4c(c(-c5cccs5)c3c2N)CCCCC4)c1 | > 12500 nM | 995 nM | > 100000 nM
OC(CNCC1COc2ccccc2O1)c1ccccc1 (centres undefined) | > 12200 nM | 1000 nM | > 100000 nM
O=c1c2c([nH]c3ccccc13)CCCC2 | 628 nM | 991 nM | > 100000 nM
CC(=O)NC1=NN(C(C)=O)C(c2ccc(Br)cc2)S1 (centres undefined) | > 7540 nM | 976 nM | > 100000 nM
COc1cc(NC(C)CCCN(Cc2ccc(N(C)C)cc2)C(=O)C(Cl)Cl)c2ncccc2c1 (centres undefined) | 948 nM | 66.6 nM | > 6790 nM
N#Cc1c(N)nc(SCC(=O)c2ccc(Br)cc2)c(C#N)c1-c1ccccc1 | 581 nM | 560 nM | > 56600 nM
COc1ccc(OC)c(-c2ccc(O)c(CNC3CCCCCC3)c2)c1 | 364 nM | 97.5 nM | > 10000 nM
O=C(N/C(=C/C=C/c1ccccc1)C(=O)N1CCOCC1)c1ccccc1 | > 1250 nM | 98.5 nM | > 10000 nM
O=C(O)c1ccc2c(c1)N=CN(C1CCCCC1)C2 | 268 nM | 98.3 nM | > 10000 nM
C=Cc1cc2ccccc2c2cc3c(cc12)C[N+](C)(C)C3 | 654 nM | 974 nM | > 100000 nM
CCCCN(CCCC)S(=O)(=O)c1ccc(NC(=O)c2ccco2)cc1 | 1420 nM | 637 nM | > 65700 nM
